Assay results: patent US5001149A, “Azadirachtin derivative insecticides” (NPI, priority 1987, dated 1991)
Values after ≈ are worked out from the molar mass of the structure shown. “Also recorded” adds a separate entry of the source.

Key:
[1] = Stability to UV irradiation by reversed phase HPLC; type: physicochemical
Description: Stability of Azadirachtin derivatives was determined as follows:
(§1) Azadirachtin and its derivatives listed above (1.0 mg/ml absolute ethanol) were placed individually in capped quartz NMR tubes (5×180 mm) and were irradiated with two UV germicidal lights (GE, G30T8, 200-280 nm, 30 W) 1.8 m from the source at room temperature for up to 400 h. The controls were identical samples protected from exposure to UV radiation by wrapping with aluminum foil. At selected time intervals, aliquots from both the controls (non-irradiated) and irradiated samples were removed for high-performance liquid chromatography (HPLC) analysis (vide infra) and bioassay.
Analytical reversed phase HPLC was performed on a phenyl (5 μm) column run isocratically with acetonitrile-water (3:7) (Yamasaki et al.) Peaks were detected at 214 nm. The irradiated samples were compared with their corresponding non-UV-irradiated controls by measuring the height of the peak eluting at the appropriate Rt for each irradiated compound relative to each one's non-irradiated control. Results are expressed as the percent of the initial sample concentration remaining relative to the control. Each time point was done in at least triplicate fashion.

[2] = tested on: fifth-instar Heliothis virescens larvae; experiment: Relative activity of UV-irradiated compounds in inhibiting pupal development (pupation); type: in vivo; details: for Relative activity, inhibiting pupal development: relative to non-irradiated
Description: as §1
(§2) Individual larvae were injected per os on the first day of the fifth instar with 1.0 μg of one of the either irradiated or non-irradiated compounds dissolved in 1.0 μl of 75% aqueous ethanol.
(§3) Relative activity of azadirachtin, 3deacetylazadirachtin,
22,23dihydroazadirachtin, and 2',3',22,23tetrahydroazadirachtin, all of
which had been exposed for 15, 30, 90, 200, and 400 hours to UV radiation
inhibiting the pupal development of fifthinstar Heliothis virescens
(§4) larvae. Relative activity is defined as the percentage of larvae injected

[3] = tested on: insects; details: Kubo & Klocke and other literature; cited from earlier work
[4] = tested on: first-instar Heliothis virescens larvae; experiment: Mortality and growth inhibition in first-instar Heliothis virescens larvae fed in an artificial diet; type: in vivo
From the text: Mortality and growth inhibition in first-instar Heliothis
virescens larvae fed azadirachtin and eight derivatives in an
^b LC50 values are the concentrations (ppm) causing 50%
^c EC50 values are the concentrations (PPM) causing 50% growth
^d Numbers in parentheses are the 95% confidence limits determined
using the methods of Litchfield and Wilcoxon, J. Pharmacol. Exp. Ther.

[5] = tested on: fifth-instar Heliothis virescens larvae; experiment: Pupal and adult development of fifth-instar larvae injected orally with non-irradiated compounds; type: in vivo
Description: as §2
Successful and unsuccessful pupal and adult development of fifthinstar
Heliothis Virescens larvae injected orally with 1.0 microgram of either
azadirachtin, 3deacetylazadirachtin, 22,23dihydroazadirachtin, or
2',3',22,23tetrahydroazadirachtin.

[6] = tested on: fifth-instar Heliothis virescens larvae; experiment: Relative activity of UV-irradiated compounds in inhibiting adult development; type: in vivo; details: for Relative activity, inhibiting adult development: relative to non-irradiated
Description: as §1, §2, §3
22,23dihydroazadirachtin, 2',3',22,23tetrahydroazadirachtin, all of which
had been exposed for 15, 30, 90, 200, and 400 hours to UV radiation, in
inhibiting the adult development of fifthinstar Heliothis virescens
as §4
relative to the percentage injected with its nonirradiated counterpart

[7] = tested on: insects; experiment: Antifeedant function; details: in vivo
[8] = 1.0 microgram per os, fifth instar, non-irradiated

C/C=C(\C)C(=O)O[C@H]1C[C@@H](OC(C)=O)[C@@]2(C(=O)OC)CO[C@H]3[C@@H](O)[C@@](C)([C@]45O[C@@]4(C)[C@H]4C[C@@H]5O[C@@H]5OC=C[C@@]54O)[C@H]4[C@]1(CO[C@]4(O)C(=O)OC)[C@@H]32 [Compound 1, azadirachtin]
degradation, in words ([1]; 400 h UV): none of the three compounds remained in their original state
half-life ([1]; UV 200-280 nm, absolute ethanol, room temperature, read-out: T1/2 of UV degradation (converted)): 25 h
UV stability, in words ([1]; UV exposure up to 400 h): UV-labile
reaction order of UV degradation, in words ([1]; UV irradiation): degraded in a first-order reaction
degraded at 90 h ([1]; absolute ethanol, 90 h UV, read-out: compound degraded): > 80%
Relative activity, inhibiting pupal development ([2]; 15 h UV): 98.6%
Relative activity, inhibiting pupal development ([2]; 30 h UV): 98.9%
activity retained, in words ([2]; 90 h UV): retained full activity
Relative activity, inhibiting pupal development ([2]; 90 h UV): 85.7%
ability to inhibit pupation, in words ([2]; 200 h UV): did decline
Relative activity, inhibiting pupal development ([2]; 200 h UV): 74.2%
ability to inhibit pupation, in words ([2]; 400 h UV): An even greater decline
activity retained ([2]; 400 h UV): approximately 50%
Relative activity, inhibiting pupal development ([2]; 400 h UV): 60.0%
ability to inhibit pupation, in words ([2]; up to 90 h UV): not appreciably reduced
ecdysis inhibitory activity, in words [3]: potent ecdysis inhibitory activity; also recorded: the same ecdysis inhibitory activity
LC50 ([4]; Heliothis virescens, po, read-out: LC50 (concentration causing 50% mortality)): 0.8 µg/mL (≈ 1.11 µM)
EC50 (concentration causing 50% growth inhibition) ([4]; first-instar larvae, artificial diet, in parentheses 95% confidence limits): 0.07 (0.05-0.10) ppm
Adults Deformed, % [5, 8]: 0.7%
Adults, % [5, 8]: 1.3%
Number Adults [5, 8]: 2
Number Adults Deformed [5, 8]: 1
Number Pupae [5, 8]: 10
Number Unsuccessful Larvae-Pupae [5, 8]: 5
Number Unsuccessful Pupae-Adult [5, 8]: 0
Pupae, % [5, 8]: 6.7%
Unsuccessful Larvae-Pupae, % [5, 8]: 3.4%
Unsuccessful Pupae-Adult, % [5, 8]: 0%
inhibition of pupation, in words ([5]; 1.0 microgram per os, non-irradiated): equally effective in inhibiting pupation
mortality at 0.001 mg ([5]; Heliothis virescens, light or radiation study, po, read-out: % Mortality Prior to Adult Stage): 98.7%
Relative activity, inhibiting adult development ([6]; 15 h UV): 101.3%
Relative activity, inhibiting adult development ([6]; 30 h UV): 101.3%
Relative activity, inhibiting adult development ([6]; 90 h UV): 97.3%
ability to inhibit larvae from reaching the adult stage, in words ([6]; 200 h UV): declined slightly
Relative activity, inhibiting adult development ([6]; 200 h UV): 89.7%
Relative activity, inhibiting adult development ([6]; 400 h UV): 81.1%
antifeedant function, in words [7]: function as antifeedants
